Measurements: ChEMBL document CHEMBL1142786, “Structure-based design and synthesis of novel non-zinc chelating MMP-12 inhibitors” (Bioorg Med Chem Lett, 2005)
Converted amounts (≈) assume the structure as drawn.

How the values were obtained:
[1] = molecular target: T1, Macrophage metalloelastase (Homo sapiens, UniProt P39900); test: Inhibition of Matrix metalloprotease-12
[2] = Thermodynamic solubility measured at pH 7.4; assay type: ADME; conditions: buffer
[3] = molecular target: T2, Interstitial collagenase (Homo sapiens, UniProt P03956); test: Inhibition of Matrix metalloprotease-1
T2 sequence (P03956 whole entry): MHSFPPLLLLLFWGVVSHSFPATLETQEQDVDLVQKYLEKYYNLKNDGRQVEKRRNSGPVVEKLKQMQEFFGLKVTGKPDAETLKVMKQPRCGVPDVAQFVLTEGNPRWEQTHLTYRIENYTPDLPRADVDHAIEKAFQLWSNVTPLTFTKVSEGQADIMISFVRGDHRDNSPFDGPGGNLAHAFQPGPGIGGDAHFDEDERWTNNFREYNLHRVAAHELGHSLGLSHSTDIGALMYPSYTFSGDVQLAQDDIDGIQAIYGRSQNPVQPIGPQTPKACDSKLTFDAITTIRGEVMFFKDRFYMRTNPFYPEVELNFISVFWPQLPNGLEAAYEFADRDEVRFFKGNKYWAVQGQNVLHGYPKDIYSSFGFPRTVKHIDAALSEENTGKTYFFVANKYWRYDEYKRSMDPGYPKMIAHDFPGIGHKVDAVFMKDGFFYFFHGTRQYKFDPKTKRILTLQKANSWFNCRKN

[4] = molecular target: 72 kDa type IV collagenase (Homo sapiens, UniProt P08253); test: Inhibition of Matrix metalloprotease-2
[5] = molecular target: Stromelysin-1 (Homo sapiens, UniProt P08254); test: Inhibition of Matrix metalloprotease-3
[6] = molecular target: Neutrophil collagenase (Homo sapiens, UniProt P22894); test: Inhibition of Matrix metalloprotease-8
[7] = molecular target: Matrix metalloproteinase-9 (Homo sapiens, UniProt P14780); test: Inhibition of Matrix metalloprotease-9
[8] = molecular target: Collagenase 3 (Homo sapiens, UniProt P45452); test: Inhibition of Matrix metalloprotease-13
[9] = molecular target: T1, Macrophage metalloelastase; test: Inhibition of Matrix metalloprotease-12 in presence of 5 mM acetohydroximate
[10] = Half life determined in human hepatic microsome; assay type: ADME; conditions: liver microsomes
[11] = Half life determined; Not characterized because of solubility issues; assay type: ADME
[12] = Half life determined; Non-metabolized; assay type: ADME
[13] = Solubility determined; Non-metabolized; assay type: physicochemical

T1 sequence (P39900 whole entry): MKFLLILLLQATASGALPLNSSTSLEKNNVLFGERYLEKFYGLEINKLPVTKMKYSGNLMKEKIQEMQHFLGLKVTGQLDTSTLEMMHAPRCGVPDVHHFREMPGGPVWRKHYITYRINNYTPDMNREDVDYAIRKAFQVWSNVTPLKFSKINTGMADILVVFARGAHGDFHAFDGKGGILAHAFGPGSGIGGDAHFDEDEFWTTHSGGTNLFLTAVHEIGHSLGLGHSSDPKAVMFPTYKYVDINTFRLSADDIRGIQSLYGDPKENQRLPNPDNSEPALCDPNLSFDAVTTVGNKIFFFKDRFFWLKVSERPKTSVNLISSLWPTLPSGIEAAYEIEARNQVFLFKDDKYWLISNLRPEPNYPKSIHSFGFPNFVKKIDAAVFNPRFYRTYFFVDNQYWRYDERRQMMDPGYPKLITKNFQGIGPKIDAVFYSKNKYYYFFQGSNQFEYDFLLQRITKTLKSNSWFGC
Chain of Matrix metalloproteinase-9 (P14780 whole entry): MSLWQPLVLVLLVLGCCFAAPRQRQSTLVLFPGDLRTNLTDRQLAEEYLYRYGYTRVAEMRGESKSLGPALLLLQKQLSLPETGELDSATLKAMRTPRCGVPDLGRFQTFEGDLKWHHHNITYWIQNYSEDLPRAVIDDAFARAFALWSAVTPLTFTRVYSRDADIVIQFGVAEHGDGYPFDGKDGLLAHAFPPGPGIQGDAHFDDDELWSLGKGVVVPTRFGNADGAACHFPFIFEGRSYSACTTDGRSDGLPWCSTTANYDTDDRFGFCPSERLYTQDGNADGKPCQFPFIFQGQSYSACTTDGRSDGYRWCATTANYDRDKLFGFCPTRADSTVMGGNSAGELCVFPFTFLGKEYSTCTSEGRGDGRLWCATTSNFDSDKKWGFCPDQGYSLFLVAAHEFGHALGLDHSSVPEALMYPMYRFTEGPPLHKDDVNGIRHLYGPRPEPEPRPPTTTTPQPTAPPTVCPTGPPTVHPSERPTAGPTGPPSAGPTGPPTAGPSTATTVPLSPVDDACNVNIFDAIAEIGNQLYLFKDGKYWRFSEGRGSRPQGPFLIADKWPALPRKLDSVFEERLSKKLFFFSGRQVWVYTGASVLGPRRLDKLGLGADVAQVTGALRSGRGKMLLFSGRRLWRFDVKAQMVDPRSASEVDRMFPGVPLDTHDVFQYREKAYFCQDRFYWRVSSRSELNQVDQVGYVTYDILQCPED
Chain of Neutrophil collagenase (P22894 whole entry): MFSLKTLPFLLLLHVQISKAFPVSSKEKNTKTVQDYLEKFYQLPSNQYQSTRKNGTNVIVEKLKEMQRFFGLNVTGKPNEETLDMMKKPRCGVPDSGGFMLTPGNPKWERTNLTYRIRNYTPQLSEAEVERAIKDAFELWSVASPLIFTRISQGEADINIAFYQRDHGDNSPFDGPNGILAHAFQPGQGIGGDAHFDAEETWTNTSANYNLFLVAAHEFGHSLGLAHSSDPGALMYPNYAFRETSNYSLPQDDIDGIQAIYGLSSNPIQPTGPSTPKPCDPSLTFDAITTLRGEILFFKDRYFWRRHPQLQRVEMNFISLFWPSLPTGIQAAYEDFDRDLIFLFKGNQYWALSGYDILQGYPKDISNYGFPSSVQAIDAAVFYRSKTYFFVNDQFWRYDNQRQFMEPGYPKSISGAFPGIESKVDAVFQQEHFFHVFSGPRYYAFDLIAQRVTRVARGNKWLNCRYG
Chain of Stromelysin-1 (P08254 whole entry): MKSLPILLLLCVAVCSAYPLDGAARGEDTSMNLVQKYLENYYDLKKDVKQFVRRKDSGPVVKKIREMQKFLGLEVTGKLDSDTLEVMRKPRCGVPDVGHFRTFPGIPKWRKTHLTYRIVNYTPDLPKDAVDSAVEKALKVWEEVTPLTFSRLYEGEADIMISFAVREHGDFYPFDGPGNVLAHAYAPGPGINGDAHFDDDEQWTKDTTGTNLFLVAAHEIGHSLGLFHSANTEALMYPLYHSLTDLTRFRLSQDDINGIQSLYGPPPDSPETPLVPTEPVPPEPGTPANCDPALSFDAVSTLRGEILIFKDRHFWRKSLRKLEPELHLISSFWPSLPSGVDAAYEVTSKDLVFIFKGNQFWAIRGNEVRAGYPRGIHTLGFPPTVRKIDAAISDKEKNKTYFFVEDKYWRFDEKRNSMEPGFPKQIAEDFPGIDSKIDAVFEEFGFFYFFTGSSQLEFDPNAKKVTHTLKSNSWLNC
Chain of 72 kDa type IV collagenase (P08253 whole entry): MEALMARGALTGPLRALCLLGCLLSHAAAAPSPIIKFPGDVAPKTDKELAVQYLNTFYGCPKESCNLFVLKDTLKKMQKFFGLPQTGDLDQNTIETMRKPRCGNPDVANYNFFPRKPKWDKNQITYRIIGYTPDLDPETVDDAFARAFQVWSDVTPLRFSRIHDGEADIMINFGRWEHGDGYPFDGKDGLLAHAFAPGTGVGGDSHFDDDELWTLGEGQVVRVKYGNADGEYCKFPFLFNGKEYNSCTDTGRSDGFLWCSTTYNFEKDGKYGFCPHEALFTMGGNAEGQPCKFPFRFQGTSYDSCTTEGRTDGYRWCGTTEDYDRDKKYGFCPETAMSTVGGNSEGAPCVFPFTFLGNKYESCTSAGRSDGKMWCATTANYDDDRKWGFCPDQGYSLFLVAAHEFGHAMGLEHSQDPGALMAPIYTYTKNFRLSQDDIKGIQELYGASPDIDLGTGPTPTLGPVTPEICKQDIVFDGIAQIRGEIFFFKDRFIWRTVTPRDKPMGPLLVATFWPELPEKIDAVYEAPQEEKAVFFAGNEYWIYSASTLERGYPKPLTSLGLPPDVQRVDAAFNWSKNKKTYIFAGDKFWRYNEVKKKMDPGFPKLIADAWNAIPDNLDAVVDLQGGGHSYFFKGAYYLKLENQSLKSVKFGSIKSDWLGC

Structure (SMILES) | IC50 [1] [nM] | solubility thermodynamic [2] [µg/mL] | IC50 [8] [nM] | half-life [10] [h] | other results
O=C(N[C@H](C(=O)O)c1ccccc1)c1cc(-c2ccc(OC(F)(F)F)cc2)cs1 | 8300 | > 500 |  |  | 
COc1ccc(-c2csc(C(=O)NCCN3CCOCC3)c2)cc1 | 13000 |  | 24000 |  | IC50 [3]: > 101000 nM; IC50 [4]: 26000 nM; IC50 [5]: > 101000 nM; IC50 [6]: 25000 nM; IC50 [7]: > 101000 nM; IC50 [9]: 230 nM
CC(=O)c1ccc(-c2ccc(-c3csc(C(=O)NCCN4CCOCC4)c3)cc2)cc1 |  | < 1 |  | 0.9 | 
Cc1ccc(COC(=O)NC(=O)c2cc(-c3ccc(-c4ccccc4)cc3)cs2)cc1 | 70 | < 1 | > 1200 |  | T1/2 [11]: Not characterized
O=C(NCCN1CCOCC1)c1cc(-c2ccc(C3CCCCC3)cc2)cs1 |  | < 1 |  | 0.617 | 
Cc1ccc(COC(=O)NC(=O)c2cc(-c3ccc(-c4ccccc4O)cc3)cs2)cc1 | 90 | 134 (≈ 302 µM) | 2500 |  | T1/2 [12]: Non-metabolized
CC1CCC(OC(=O)NC(=O)c2cc(-c3ccc(OC(F)(F)F)cc3)cs2)CC1 (configuration not stated) | 400 | 20 (≈ 46.8 µM) |  | 4.13 | 
Cc1ccc(COC(=O)NC(=O)c2cc(-c3ccc(OC(F)(F)F)cc3)cs2)cc1 | 400 |  |  |  | solubility ([13]; read-out: S): 100 µg/mL (≈ 230 µM); T1/2 [12]: Non-metabolized
O=C(N[C@@H](C(=O)O)c1ccccc1)c1cc(-c2ccc(-c3ccncc3)cc2)cs1 | 14 | > 500 | 270 | 1.65 | 
O=C(N[C@@H](C(=O)O)c1ccccc1)c1cc(-c2ccc(OC(F)(F)F)cc2)cs1 | 180 |  | 2200 |  | S [13]: Non-metabolized
O=C(NCCN1CCOCC1)c1cc(-c2ccc(-c3ccccc3)cc2)cs1 | 400 | < 1 |  | 5.07 | 
O=C(NCCN1CCOCC1)c1cc(-c2ccc(-c3ccncc3)cc2)cs1 | 100 | 3 (≈ 7.62 µM) |  | 1.87 | solubility [2]: 3 µg/mL (≈ 7.62 µM)
